Laboratory results from patent publication US20240139162A1, “Benzophenanthridine Alkaloids and Their Methods of Use” (Chengdu Anticancer Bioscience, LTD., priority 2019, published 2024).
“Also recorded” adds a separate entry of the source. Where two headings read alike, the source gives them in different places.

Key:
[1] = test system: Rat1A cell lines (Rat1A C, Rat1A MYC, Rat1A E2F1, Rat1A E2F3); assay: MTT assay, Rat1A cell lines expressing oncogenes; type: cell-based; conditions: Rat1A cell lines compared to Rat1A C (FIG. 12)
Experimental: (§1) Cells were split, plated in appropriate culture media and allowed to adhere. After 18 hours, corynoline and acetylcorynoline were added to a cell line selected from below. At 72 h or 96 h, MTT was added and at 75 h or 99 h, the A570 nm was recorded. The concentration ranged from 0.02 μM to 40 μM.
The following Rat1A cell lines were used in these studies: Rat1 A C, Rat1A MYC, Rat1A E2F1, and Rat1A E2F3. The cell line was then engineered as control (C), to overexpress the MYC oncogene (Rat1A-MYC), to overexpress the E2F1 oncogene (Rat1A-E2F1), or to overexpress the E2F3 oncogene (Rat1A-E2F3).

[2] = test system: RPE MBC cells; assay: Spindle pole assembly by β-tubulin / Histone H3ser10P immunofluorescence; type: cell-based, human
Experimental: Microtubule assembly, specifically spindle pole assembly, was altered by treatment with acetylcorynoline. RPE MBC cells were treated with acetylcorynoline and Histone H3 Serine 10 Phosphorylation (Histone H3ser10p, shown in FIG. 4 and FIG. 5 in red), β-tubulin (green) and DNA (blue) was analyzed by immunofluorescence microscopy. Histone H3ser10P was used to determine the cells that were in early mitosis (e.g., prometaphase or metaphase). β-tubulin was used to examine microtubule localization and spindle assembly within the cells.
Similarly to corynoline and acetylcorynoline above, it was determined that microtubule assembly, specifically spindle pole assembly, was altered by treatment with chelidonine.

[3] = test system: all tested cell lines (RPE, Rat1A and human cancer cell lines); assay: MTT assay, IC50 across all of the cell lines tested; type: cell-based
[4] = test system: RPE-Neo cells; assay: IC50 in RPE-Neo cells (Table 2); type: cell-based, human; conditions: Homo sapiens, 72 h, RPE-Neo, treatment 72 h; read-out: IC50
Experimental: as §1
The following RPE cell lines were used in these studies: RPE NEO, RPE MBH, RPE MBC, RPE MA, RPE MP, RPE MI, and RPE MYC Nick. This RPE series were derived from human retinal pigment epithelium and then stably transfected with an hTERT expression construct for immortalization. The resulting cell line was then engineered to overexpress the MYC oncogene (RPE-MYC) or a Neomycin selection marker gene (RPE-NEO). In RPE-MYC cells, a variety of other oncogenes such as Myr-AKT, BCL2, ID1 and PI3K^E45k were further introduced individually to generate the cell lines RPE MA, RPE MBC, RPE MI, RPE MP, respectively. As a control, H2BGFP was introduced into RPE-MYC cells to generate RPE MBH.
(§2) The effect of the compounds chelidonine and protopine on cell division was assessed similarly to corynoline and acetylcorynoline above. As described in Example 6 above, as cells enter and become arrested in mitosis, they detach from the plate surface and appear as rounded cells with a smooth surface membrane. RPE-MBC cells (ectopically expressing oncogenes MYC and Bcl2) were treated with DMSO, chelidonine and protopine, and compared against controls Michael's ketone (MK) and taxol.

[5] = test system: 3T3 MEF cells; assay: IC50 in 3T3 MEF cells (Table 2); type: cell-based; conditions: Mus musculus, MEF, 72 h, 3T3 MEF, treatment 72 h; read-out: IC50
Experimental: as §1, §2

[6] = test system: IMR 90 cells; assay: IC50 in IMR 90 cells (Table 2); type: cell-based; conditions: Homo sapiens, IMR-90, 72 h, IMR 90, treatment 72 h; read-out: IC50
Experimental: as §1, §2

[7] = test system: RPE-A19 cells; assay: IC50 in RPE-A19 cells (Table 2); type: cell-based, human; conditions: Homo sapiens, 72 h, RPE-A19, treatment 72 h; read-out: IC50
Experimental: as §1, §2

Q: For CC(=O)O[C@H]1Cc2cc3c(cc2[C@H]2N(C)Cc4c(ccc5c4OCO5)[C@@]12C)OCO3 [Acetylcorynoline, (5bR,6S,12bR)-5b,6,7,12b,13,14-Hexahydro-5b,13-dimethyl-[1,3]benzodioxolo[5,6-c]-1,3-dioxolo[4,5-i]phenanthridin-6-ol 6-acetate], which “change of IC50 after overexpression of oncogenes” value [1] is on record?
A: all declined when compared to Rat1 A C

Q: And the “cells in prometaphase (Histone H3ser10P staining)” value ([2]; 6 hours of treatment)?
A: Numerous mitotic cells accumulated in prometaphase; also recorded: high numbers of cells arresting in prometaphase

Q: What about the “spindle formation (β-tubulin staining)” value ([2]; 6 hours of treatment) of the same compound?
A: monopolar spindles were formed; also recorded: abnormal spindle polarization in mitosis

Q: And the “spindle formation (β-tubulin staining)” value ([2]; 24 hours of treatment)?
A: multipolar spindles were formed; also recorded: multipolar spindle formation in mitosis

Q: And the IC50 ([3]; Homo sapiens, across all of the cell lines tested (FIG. 9), MTT at 72 h or 96 h, read-out: IC50)?
A: 1 to 31 µM

Q: And the IC50 ([3]; oncogene-expressing RPE cell lines and human cell lines (FIG. 2, FIG. 3), read-out: IC50, majority of values)?
A: 1 to 31 µM

Q: What about the IC50 [4] of the same compound?
A: > 40 µM

Q: And the IC50 [5]?
A: 23 µM

Q: What about the IC50 [6] of the same compound?
A: > 40 µM

Q: And the IC50 [7]?
A: 35.2 µM
